Reference: US12344597B2, “Alkoxy-substituted pyridinyl derivatives as LPA1 receptor antagonists and their use in the treatment of fibrosis” (IDORSIA PHARMACEUTICALS LTD, priority 2018, dated 2025)

biological target: human LPA1 receptor (Homo sapiens (Human), UniProt Q92633); assay: Beta-arrestin recruitment assay to determine IC50 values for human LPAR1; assay type: cell-based; conditions: antagonist mode, Tango EDG2-bla U2OS cells, LPA 18:1 500 nM final
Procedure, shortened: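 Tango EDG2-bla U2OS cells: LPA-driven beta-arrestin/TEV protease recruitment releases Gal4-VP16, inducing beta-lactamase reporter read with live-cell substrate. Cells seeded 20 h at 37 °C beforehand. IC50 is antagonist concentration inhibiting 50% of maximal response.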

Chain of human LPA1 receptor (Q92633 whole entry, the tested form may be a part): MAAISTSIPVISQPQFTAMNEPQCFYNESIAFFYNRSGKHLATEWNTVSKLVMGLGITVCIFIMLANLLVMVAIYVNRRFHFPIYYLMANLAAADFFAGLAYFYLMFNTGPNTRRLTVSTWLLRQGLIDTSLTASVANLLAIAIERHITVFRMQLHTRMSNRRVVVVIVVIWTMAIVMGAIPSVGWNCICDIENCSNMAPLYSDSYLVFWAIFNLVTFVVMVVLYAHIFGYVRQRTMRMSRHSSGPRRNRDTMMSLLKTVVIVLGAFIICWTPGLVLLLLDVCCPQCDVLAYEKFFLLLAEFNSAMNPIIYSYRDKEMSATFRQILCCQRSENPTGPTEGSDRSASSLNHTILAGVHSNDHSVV

Compound	IC50
Cc1ccc(NC(=O)C2(c3ccccc3C(C)C)CN(C(=O)CN3CC(=O)NC3=O)C2)c(OC(F)F)n1 [Ex 12-126, N-(2-(difluoromethoxy)-6-methylpyridin-3-yl)-1-(2-(2,4-dioxoimidazolidin-1-yl)acetyl)-3-(2-isopropylphenyl)azetidine-3-carboxamide]	46 nM
CCOC(=O)CN(C)CCN1CC(C(=O)Nc2ccc(C)nc2OC(F)F)(c2ccccc2C(C)C)C1 [Ex 11-81, Ethyl N-(2-(3-((2-(difluoromethoxy)-6-methylpyridin-3-yl)carbamoyl)-3-(2-isopropylphenyl)azetidin-1-yl)ethyl)-N-methylglycinate]	88 nM
Cc1ccc(NC(=O)C2(c3ccccc3C(C)C)CN(C(=O)NC(C)(C)CC(=O)O)C2)c(OC(F)F)n1 [Ex 17-2, 3-(3-((2-(difluoromethoxy)-6-methylpyridin-3-yl)carbamoyl)-3-(2-isopropylphenyl)azetidine-1-carboxamido)-3-methylbutanoic acid]	12 nM
COC(=O)c1cnc(N2CC(C(=O)Nc3ccc(C)nc3OC(F)F)(c3ccccc3C(C)C)C2)n1C [Ex 18-35, methyl 2-(3-((2-(difluoromethoxy)-6-methylpyridin-3-yl)carbamoyl)-3-(2-isopropylphenyl)azetidin-1-yl)-1-methyl-1H-imidazole-5-carboxylate]	30 nM
Cc1ccc(NC(=O)C2(c3ccccc3C(C)C)CN(C(=O)CC3(C(=O)O)CCOCC3)C2)c(OC(F)F)n1 [Ex 12-122, 4-(2-(3-((2-(difluoromethoxy)-6-methylpyridin-3-yl)carbamoyl)-3-(2-isopropylphenyl)azetidin-1-yl)-2-oxoethyl)tetrahydro-2H-pyran-4-carboxylic acid]	15 nM
Cc1ccc(NC(=O)C2(c3ccccc3C(C)C)CN(Cc3cn(CC(=O)O)nn3)C2)c(OC(F)F)n1 [Ex 11-49, 2-(4-((3-((2-(difluoromethoxy)-6-methylpyridin-3-yl)carbamoyl)-3-(2-isopropylphenyl)azetidin-1-yl)methyl)-1H-1,2,3-triazol-1-yl)acetic acid]	547 nM
CC(C)c1ccccc1C1(C(=O)Nc2ncc(Cl)cc2OC(F)F)CN(CCC(C)(C)C(=O)O)C1 [Ex 78-2, 4-(3-((5-chloro-3-(difluoromethoxy)pyridin-2-yl)carbamoyl)-3-(2-isopropylphenyl)azetidin-1-yl)-2,2-dimethylbutanoic acid]	17 nM
COc1nc(C)ccc1NC(=O)C1(c2ccccc2C(C)C)CN(S(N)(=O)=O)C1 [Ex 15-16, 3-(2-isopropylphenyl)-N-(2-methoxy-6-methylpyridin-3-yl)-1-sulfamoylazetidine-3-carboxamide]	50 nM
Cc1ccc(C(C)C)c(C2(C(=O)Nc3ccc(C)nc3OC(F)F)CNC2)c1 [Ex 34, N-(2-(difluoromethoxy)-6-methylpyridin-3-yl)-3-(2-isopropyl-5-methylphenyl)azetidine-3-carboxamide]	142 nM
CCOC(=O)c1coc(N2CC(C(=O)Nc3ccc(C)nc3OC(F)F)(c3ccccc3C(C)C)C2)n1 [Ex 18-27, ethyl 2-(3-((2-(difluoromethoxy)-6-methylpyridin-3-yl)carbamoyl)-3-(2-isopropylphenyl)azetidin-1-yl)oxazole-4-carboxylate]	10 nM
COC(=O)/C=C/S(=O)(=O)N1CC(C(=O)Nc2ccc(C)nc2OC(F)F)(c2ccccc2C(C)C)C1 [Ex 13-20, methyl (E)-3-((3-((2-(difluoromethoxy)-6-methylpyridin-3-yl)carbamoyl)-3-(2-isopropylphenyl)azetidin-1-yl)sulfonyl)acrylate]	18 nM
Cc1ccc(NC(=O)C2(c3ccccc3C(C)C)CN(C(=O)CC3(O)COC3)C2)c(OC(F)F)n1 [Ex 12-13, N-(2-(difluoromethoxy)-6-methylpyridin-3-yl)-1-(2-(3-hydroxyoxetan-3-yl)acetyl)-3-(2-isopropylphenyl)azetidine-3-carboxamide]	17 nM
Cc1ccc(NC(=O)C2(c3ccccc3C(C)C)CN(C(=O)C3COCCN3)C2)c(OC(F)F)n1 (stereo not shown) [Ex 12-43, N-(2-(difluoromethoxy)-6-methylpyridin-3-yl)-3-(2-isopropylphenyl)-1-(morpholine-3-carbonyl)azetidine-3-carboxamide]	106 nM
Cc1ccc(NC(=O)C2(c3ccccc3C(C)C)CN(C#N)C2)c(OC(F)F)n1 [Ex 11-6, 1-cyano-N-(2-(difluoromethoxy)-6-methylpyridin-3-yl)-3-(2-isopropylphenyl)azetidine-3-carboxamide]	11 nM
COC(=O)C(C)(C)CCN1CC(C(=O)Nc2ccc(C)nc2OC(F)F)(c2ccccc2C(C)C)C1 [Ex 11-30, methyl 4-(3-((2-(difluoromethoxy)-6-methylpyridin-3-yl)carbamoyl)-3-(2-isopropylphenyl)azetidin-1-yl)-2,2-dimethylbutanoate]	98 nM
N-(2-(difluoromethoxy)-6-methylpyridin-3-yl)-1-(3-(N-hydroxyacetamido)propanoyl)-3-(2-isopropylphenyl)azetidine-3-carboxamide [Ex 12-130]	48 nM

Compound	IC50
Cc1ccc(NC(=O)C2(c3ccccc3C(C)C)CN(C(=O)CNC(N)=O)C2)c(OC(F)F)n1 [Ex 12-10, 1-(carbamoylglycyl)-N-(2-(difluoromethoxy)-6-methylpyridin-3-yl)-3-(2-isopropylphenyl)azetidine-3-carboxamide]	155 nM
COC(=O)c1ccc(CN2CC(C(=O)Nc3ccc(C)nc3OC(F)F)(c3ccccc3C(C)C)C2)[nH]1 [Ex 11-43, methyl 5-((3-((2-(difluoromethoxy)-6-methylpyridin-3-yl)carbamoyl)-3-(2-isopropylphenyl)azetidin-1-yl)methyl)-1H-pyrrole-2-carboxylate]	310 nM
Cc1ccc(NC(=O)C2(c3ccccc3C(C)C)CN(C(=O)NC(C)(C)C(=O)O)C2)c(OC(F)F)n1 [Ex 17-13, 2-(3-((2-(difluoromethoxy)-6-methylpyridin-3-yl)carbamoyl)-3-(2-isopropylphenyl)azetidine-1-carboxamido)-2-methylpropanoic acid]	25 nM
Cc1ccc(NC(=O)C2(c3ccccc3C(C)C)CN(CC3COC3)C2)c(OC(F)F)n1 [Ex 11-5, N-(2-(difluoromethoxy)-6-methylpyridin-3-yl)-3-(2-isopropylphenyl)-1-(oxetan-3-ylmethyl)azetidine-3-carboxamide]	29 nM
COC(=O)C1(c2ncc(N3CC(C(=O)Nc4ccc(C)nc4OC(F)F)(c4ccccc4C(C)C)C3)cn2)CC1 [Ex 18-16, methyl 1-(5-(3-((2-(difluoromethoxy)-6-methylpyridin-3-yl)carbamoyl)-3-(2-isopropylphenyl)azetidin-1-yl)pyrimidin-2-yl)cyclopropane-1-carboxylate]	2 nM
Cc1ccc(NC(=O)C2(c3ccccc3C(C)C)CN(C(=O)COCCOCC(=O)O)C2)c(OC(F)F)n1 [Ex 12-107, 2-(2-(2-(3-((2-(difluoromethoxy)-6-methylpyridin-3-yl)carbamoyl)-3-(2-isopropylphenyl)azetidin-1-yl)-2-oxoethoxy)ethoxy)acetic acid]	150 nM
CCCN(CC(=O)O)CC(=O)N1CC(C(=O)Nc2ccc(C)nc2OC(F)F)(c2ccccc2C(C)C)C1 [Ex 42, N-(2-(3-((2-(difluoromethoxy)-6-methylpyridin-3-yl)carbamoyl)-3-(2-isopropylphenyl)azetidin-1-yl)-2-oxoethyl)-N-propylglycine]	7 nM
COCCN(CC(=O)N1CCC(C(=O)Nc2ccc(C)nc2OC(F)F)(c2ccccc2C(C)C)CC1)C(=O)OC(C)(C)C [Ex 12-47, tert-butyl (2-(4-((2-(difluoromethoxy)-6-methylpyridin-3-yl)carbamoyl)-4-(2-isopropylphenyl)piperidin-1-yl)-2-oxoethyl)(2-methoxyethyl)carbamate]	59 nM
Cc1ccc(NC(=O)C2(c3ccccc3C(C)C)CN(C(=O)/C=C\C(=O)O)C2)c(OC(F)F)n1 [Ex 12-77, (Z)-4-(3-((2-(difluoromethoxy)-6-methylpyridin-3-yl)carbamoyl)-3-(2-isopropylphenyl)azetidin-1-yl)-4-oxobut-2-enoic acid]	31 nM
Cc1ccc(NC(=O)C2(c3ccccc3C(C)C)CCN(C(=O)NCc3c[nH]cn3)CC2)c(OC(F)F)n1 [Ex 17-3, N1-((1H-imidazol-4-yl)methyl)-N4-(2-(difluoromethoxy)-6-methylpyridin-3-yl)-4-(2-isopropylphenyl)piperidine-1,4-carboxamide]	8 nM
Cc1ccc(NC(=O)C2(c3ccccc3C(C)C)CN(C(=O)C[C@@H](O)C(=O)O)C2)c(OC(F)F)n1 [Ex 12-35, (R)-4-(3-((2-(difluoromethoxy)-6-methylpyridin-3-yl)carbamoyl)-3-(2-isopropylphenyl)azetidin-1-yl)-2-hydroxy-4-oxobutanoic acid]	41 nM
COC(=O)Cn1cc(CN2CC(C(=O)Nc3ccc(C)nc3OC(F)F)(c3ccccc3C(C)C)C2)nn1 [Ex 11-48, methyl 2-(4-((3-((2-(difluoromethoxy)-6-methylpyridin-3-yl)carbamoyl)-3-(2-isopropylphenyl)azetidin-1-yl)methyl)-1H-1,2,3-triazol-1-yl)acetate]	304 nM
CCOC(=O)CC1(S(=O)(=O)N2CC(C(=O)Nc3ccc(C)nc3OC(F)F)(c3ccccc3C(C)C)C2)CC1 [Ex 13-13, ethyl 2-(1-((3-((2-(difluoromethoxy)-6-methylpyridin-3-yl)carbamoyl)-3-(2-isopropylphenyl)azetidin-1-yl)sulfonyl)cyclopropyl)acetate]	1760 nM
CC(C)c1ccccc1C1(C(=O)Nc2ncc(Cl)cc2OC(F)F)CN(S(N)(=O)=O)C1 [Ex 81-3, N-(5-chloro-3-(difluoromethoxy)pyridin-2-yl)-3-(2-isopropylphenyl)-1-sulfamoylazetidine-3-carboxamide]	2 nM
COC(=O)[C@@H](NC(=O)N1CC(C(=O)Nc2ccc(C)nc2OC(F)F)(c2ccccc2C(C)C)C1)C(C)C [Ex 17-6, methyl (3-((2-(difluoromethoxy)-6-methylpyridin-3-yl)carbamoyl)-3-(2-isopropylphenyl)azetidine-1-carbonyl)-L-valinate]	9 nM
